Source: patent publication US11739098B2 (BRISTOL-MYERS SQUIBB COMPANY, priority 2017, dated 2023)

Legend:
Assay type in all cases: cell-based
[1] = target: T1, human TLR8 (Homo sapiens, UniProt Q9NR97); test: TLR8 inhibition reporter assay (HEK-Blue cells, SEAP reporter, R848 stimulation); settings: HEK-Blue cells overexpressing human TLR8, SEAP reporter, R848 15.9 μM
T1 construct: host or cells: HEK-Blue cells (HEK293-derived reporter line)
T1 sequence (Q9NR97 27-1041): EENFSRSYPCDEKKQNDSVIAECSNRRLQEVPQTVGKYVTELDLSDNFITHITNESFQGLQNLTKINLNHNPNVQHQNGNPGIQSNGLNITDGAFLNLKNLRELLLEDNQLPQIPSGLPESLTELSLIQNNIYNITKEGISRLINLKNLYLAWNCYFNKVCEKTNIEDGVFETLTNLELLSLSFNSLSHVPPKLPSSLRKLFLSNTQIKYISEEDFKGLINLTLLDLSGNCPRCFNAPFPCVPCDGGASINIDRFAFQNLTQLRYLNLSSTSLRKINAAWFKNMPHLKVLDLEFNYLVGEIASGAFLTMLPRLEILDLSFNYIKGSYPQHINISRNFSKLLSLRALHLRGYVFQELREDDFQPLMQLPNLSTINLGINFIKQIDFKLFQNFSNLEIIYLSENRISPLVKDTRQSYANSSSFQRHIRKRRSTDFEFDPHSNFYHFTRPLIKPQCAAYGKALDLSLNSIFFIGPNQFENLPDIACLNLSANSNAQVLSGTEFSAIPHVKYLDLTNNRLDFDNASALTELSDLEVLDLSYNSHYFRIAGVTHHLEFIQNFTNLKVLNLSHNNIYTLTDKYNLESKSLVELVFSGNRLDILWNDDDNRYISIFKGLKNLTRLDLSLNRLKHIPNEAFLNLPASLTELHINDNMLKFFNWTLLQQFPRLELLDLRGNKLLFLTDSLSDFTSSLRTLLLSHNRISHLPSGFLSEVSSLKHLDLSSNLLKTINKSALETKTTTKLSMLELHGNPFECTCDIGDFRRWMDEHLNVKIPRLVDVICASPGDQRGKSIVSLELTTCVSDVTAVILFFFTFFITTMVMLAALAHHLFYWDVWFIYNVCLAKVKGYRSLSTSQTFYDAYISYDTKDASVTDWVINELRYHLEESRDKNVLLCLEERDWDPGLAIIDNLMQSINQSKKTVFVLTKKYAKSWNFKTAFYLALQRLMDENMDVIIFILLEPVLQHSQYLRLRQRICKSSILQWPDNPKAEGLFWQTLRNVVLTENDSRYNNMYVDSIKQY
Procedure, shortened: (§1)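 HEK-Blue cells overexpressing human TLR7, TLR8 or TLR9 (NF-κB/AP-1-driven SEAP) pre-treated 30 min at room temperature with compound (0.05 nM–50 μM), then stimulated with gardiquimod 7.5 μM (TLR7), R848 15.9 μM (TLR8) or ODN2006 5 nM (TLR9). SEAP read colorimetrically after 22 h at 37 °C; % inhibition calculated.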

[2] = target: T2, human TLR7 (Homo sapiens, UniProt Q9NYK1); test: TLR7 inhibition reporter assay (HEK-Blue cells, SEAP reporter, gardiquimod stimulation); settings: HEK-Blue cells overexpressing human TLR7, SEAP reporter, gardiquimod 7.5 μM
T2 construct: host or cells: HEK-Blue cells (HEK293-derived reporter line)
T2 sequence (Q9NYK1 27-1049): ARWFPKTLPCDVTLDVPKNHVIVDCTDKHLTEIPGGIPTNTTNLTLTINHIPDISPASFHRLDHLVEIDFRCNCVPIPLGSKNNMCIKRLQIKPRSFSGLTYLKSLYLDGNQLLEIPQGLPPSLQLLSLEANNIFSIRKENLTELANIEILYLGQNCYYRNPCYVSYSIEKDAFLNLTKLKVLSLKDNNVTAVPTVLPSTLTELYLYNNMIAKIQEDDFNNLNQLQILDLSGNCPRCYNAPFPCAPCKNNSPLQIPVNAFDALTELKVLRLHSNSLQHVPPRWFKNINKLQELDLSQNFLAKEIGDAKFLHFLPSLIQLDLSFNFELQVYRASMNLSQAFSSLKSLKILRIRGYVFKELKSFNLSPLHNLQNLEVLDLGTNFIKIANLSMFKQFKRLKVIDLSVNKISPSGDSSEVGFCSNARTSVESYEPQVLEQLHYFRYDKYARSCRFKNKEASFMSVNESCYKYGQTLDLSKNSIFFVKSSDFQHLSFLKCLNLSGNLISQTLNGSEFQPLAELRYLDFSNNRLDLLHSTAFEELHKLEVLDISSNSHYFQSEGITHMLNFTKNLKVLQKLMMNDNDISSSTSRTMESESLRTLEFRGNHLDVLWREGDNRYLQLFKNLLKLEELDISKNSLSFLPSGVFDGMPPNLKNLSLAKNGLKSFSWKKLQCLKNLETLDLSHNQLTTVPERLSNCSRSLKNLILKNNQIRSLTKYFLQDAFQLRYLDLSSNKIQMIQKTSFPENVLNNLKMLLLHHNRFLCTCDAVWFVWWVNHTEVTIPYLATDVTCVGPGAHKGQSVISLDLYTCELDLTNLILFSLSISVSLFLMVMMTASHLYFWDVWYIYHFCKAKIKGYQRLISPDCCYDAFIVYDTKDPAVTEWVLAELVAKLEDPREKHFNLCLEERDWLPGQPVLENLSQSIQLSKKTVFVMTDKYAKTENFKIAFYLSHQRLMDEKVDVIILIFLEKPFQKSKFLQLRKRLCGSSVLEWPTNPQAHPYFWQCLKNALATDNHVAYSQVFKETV
Procedure, shortened: as §1

[3] = target: T3, human TLR9 (Homo sapiens, UniProt Q9NR96); test: TLR9 inhibition reporter assay (HEK-Blue cells, SEAP reporter, ODN2006 stimulation); settings: HEK-Blue cells overexpressing human TLR9, SEAP reporter, ODN2006 5 nM
T3 construct: host or cells: HEK-Blue cells (HEK293-derived reporter line)
T3 sequence (Q9NR96 26-1032): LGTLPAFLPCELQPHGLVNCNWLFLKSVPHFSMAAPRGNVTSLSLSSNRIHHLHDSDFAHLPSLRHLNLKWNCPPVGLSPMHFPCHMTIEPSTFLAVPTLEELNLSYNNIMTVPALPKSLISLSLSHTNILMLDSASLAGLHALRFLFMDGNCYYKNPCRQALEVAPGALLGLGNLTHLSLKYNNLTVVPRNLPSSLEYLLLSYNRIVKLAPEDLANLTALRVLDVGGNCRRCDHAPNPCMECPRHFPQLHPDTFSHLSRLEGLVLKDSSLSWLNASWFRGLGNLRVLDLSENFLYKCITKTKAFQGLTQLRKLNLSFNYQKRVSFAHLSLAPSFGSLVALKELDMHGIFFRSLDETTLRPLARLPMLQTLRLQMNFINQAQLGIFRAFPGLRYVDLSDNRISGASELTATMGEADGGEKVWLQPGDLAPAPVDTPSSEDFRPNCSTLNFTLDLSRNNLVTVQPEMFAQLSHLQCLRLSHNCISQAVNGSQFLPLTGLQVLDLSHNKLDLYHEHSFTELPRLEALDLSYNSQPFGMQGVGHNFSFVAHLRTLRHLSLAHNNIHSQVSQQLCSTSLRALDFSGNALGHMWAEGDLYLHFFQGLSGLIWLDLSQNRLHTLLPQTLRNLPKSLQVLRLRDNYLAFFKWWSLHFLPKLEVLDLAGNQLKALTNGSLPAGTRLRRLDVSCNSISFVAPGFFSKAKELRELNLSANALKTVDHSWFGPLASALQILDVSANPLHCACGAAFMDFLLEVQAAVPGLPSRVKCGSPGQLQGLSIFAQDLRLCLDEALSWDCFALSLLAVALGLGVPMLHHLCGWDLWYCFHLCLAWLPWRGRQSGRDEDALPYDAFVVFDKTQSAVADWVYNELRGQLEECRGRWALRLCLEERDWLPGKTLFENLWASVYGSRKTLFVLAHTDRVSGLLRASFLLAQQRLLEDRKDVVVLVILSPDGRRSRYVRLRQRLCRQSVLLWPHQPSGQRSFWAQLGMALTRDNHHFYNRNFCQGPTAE
Procedure, shortened: as §1

| Structure (SMILES) | IC50 [1] [µM] | IC50 [2] [µM] | IC50 [3] [µM] |
| --- | --- | --- | --- |
| CC(C)c1c(-c2cc(F)c3nccn3c2)[nH]c2ccc(C3CCN(C(=O)CN(C)C)CC3)cc12 [Example 544, 2-(dimethylamino)-1-(4-(2-(8-fluoroimidazo[1,2-a]pyridin-6-yl)-3-isopropyl-1H-indol-5-yl)piperidin-1-yl)ethan-1-one] | < 0.1 | < 0.1 | 1 to 50 |
| CC(C)c1c(-c2cnc3nccn3c2)[nH]c2ccc(C3CCNCC3)cc12 [Example 200, 6-(3-isopropyl-5-(piperidin-4-yl)-1H-indol-2-yl)imidazo[1,2-a]pyrimidine] | 0.1 to 1 | 0.1 to 1 | 0.1 to 1 |
| CCc1c(-c2ccnc3[nH]ncc23)[nH]c2ccc(C3CCNCC3)cc12 [Example 229, 4-(3-ethyl-5-(piperidin-4-yl)-1H-indol-2-yl)-1H-pyrazolo[3,4-b]pyridine] | < 0.1 | < 0.1 | 0.1 to 1 |
| CC(C)c1c(-c2ccnc3[nH]ncc23)[nH]c2ccc(C3CCN(Cc4ccc(OCCN(C)c5ccccn5)cc4)CC3)cc12 [Example 894, N-(2-(4-((4-(3-isopropyl-2-(1H-pyrazolo[3,4-b]pyridin-4-yl)-1H-indol-5-yl)piperidin-1-yl)methyl)phenoxy)ethyl)-N-methylpyridin-2-amine] | < 0.1 | 0.1 to 1 | 0.1 to 1 |
| Cc1cc(-c2[nH]c3ccc(C4CCN(C(=O)CCN5[C@@H]6CC[C@H]5COC6)CC4)cc3c2C(C)C)cn2nnnc12 [Example 635, 3-((1R,5S)-3-oxa-8-azabicyclo[3.2.1]octan-8-yl)-1-(4-(3-isopropyl-2-(8-methyltetrazolo[1,5-a]pyridin-6-yl)-1H-indol-5-yl)piperidin-1-yl)propan-1-one] | < 0.1 | < 0.1 | 1 to 50 |
| CNC(=O)CN1CCC(c2ccc3[nH]c(-c4cc(OC)n5nc(C)nc5c4)c(C(C)C)c3c2)CC1 [Example 347, 2-(4-(3-isopropyl-2-(5-methoxy-2-methyl-[1,2,4]triazolo[1,5-a]pyridin-7-yl)-1H-indol-5-yl)piperidin-1-yl)-N-methylacetamide] | < 0.1 | < 0.1 | 1 to 50 |
| Cc1c(-c2[nH]c3ccc(C4CCNCC4)cc3c2C(C)C)cn2ccnc2c1C [Example 271, 6-(3-isopropyl-5-(piperidin-4-yl)-1H-indol-2-yl)-7,8-dimethylimidazo[1,2-a]pyridine] | < 0.1 | < 0.1 | 0.1 to 1 |
| Cc1cc(-c2[nH]c3ccc(C4CCN(CC(=O)N(C)C)CC4)cc3c2C(C)C)c(C)n2nnnc12 [Example 310, 2-(4-(2-(5,8-dimethyltetrazolo[1,5-a]pyridin-6-yl)-3-isopropyl-1H-indol-5-yl)piperidin-1-yl)-N,N-dimethylacetamide] | < 0.1 | < 0.1 | 1 to 50 |
| Cc1cnc2ccc(-c3[nH]c4ccc(C5CCNCC5)cc4c3C(C)C)cn12 [Example 114, 6-(3-isopropyl-5-(piperidin-4-yl)-1H-indol-2-yl)-3-methylimidazo[1,2-a]pyridine] | 0.1 to 1 | < 0.1 | 0.1 to 1 |
| Cc1cc(-c2[nH]c3ccc(C4CCNCC4)cc3c2C(C)C)cc2ocnc12 [Example 234, 6-(3-isopropyl-5-(piperidin-4-yl)-1H-indol-2-yl)-4-methylbenzo[d]oxazole] | < 0.1 | < 0.1 | 1 to 50 |
| CNCC(=O)N1CCC(c2ccc3[nH]c(-c4cn5cc(C)nc5cc4C)c(C(C)C)c3c2)CC1 [Example 510, 1-(4-(2-(2,7-dimethylimidazo[1,2-a]pyridin-6-yl)-3-isopropyl-1H-indol-5-yl)piperidin-1-yl)-2-(methylamino)ethan-1-one] | 1 to 50 | < 0.1 | 0.1 to 1 |
| Cc1cc(-c2[nH]c3ccc(C4CCNCC4)cc3c2C(C)C)c(C)n2nnnc12 [Example 74, 6-(3-isopropyl-5-(piperidin-4-yl)-1H-indol-2-yl)-5,8-dimethyltetrazolo[1,5-a]pyridine] | < 0.1 | < 0.1 | 1 to 50 |
| Cc1c(-c2ccnc3[nH]cc(N)c23)[nH]c2ccc(C3CCNCC3)cc12 [Example 211, 4-(3-methyl-5-(piperidin-4-yl)-1H-indol-2-yl)-1H-pyrrolo[2,3-b]pyridin-3-amine] | 1 to 50 | 1 to 50 | 1 to 50 |
| Cc1nc2c(-c3[nH]c4ccc(C5CCNCC5)cc4c3C(C)C)cccn2n1 [Example 153, 8-(3-isopropyl-5-(piperidin-4-yl)-1H-indol-2-yl)-2-methyl-[1,2,4]triazolo[1,5-a]pyridine] | < 0.1 | < 0.1 | 1 to 50 |
| CC(C)c1c(-c2c[nH]c3ncncc23)[nH]c2ccc(C3CCNCC3)cc12 [Example 13, 5-(3-isopropyl-5-(piperidin-4-yl)-1H-indol-2-yl)-7H-pyrrolo[2,3-d]pyrimidine] | < 0.1 | < 0.1 | 0.1 to 1 |
